From US11590116B2 (THERAVANCE BIOPHARMA R&D IP, LLC, priority 2019, dated 2023)

Columns and labels:
[1] = molecular target: T1, recombinant human ALK5 (TGF-βR1) protein (Homo sapiens, UniProt P36897); assay: Biochemical ALK5 (TGF-βR1) assay to measure pKi (LANCE Ultra ULight kinase assay); conditions: apparent pKi from pIC50 by Cheng-Prusoff, read-out: ALK5 pKi (converted)
T1 construct: purchased Life Technologies PR9075A
T1 sequence (P36897 34-503): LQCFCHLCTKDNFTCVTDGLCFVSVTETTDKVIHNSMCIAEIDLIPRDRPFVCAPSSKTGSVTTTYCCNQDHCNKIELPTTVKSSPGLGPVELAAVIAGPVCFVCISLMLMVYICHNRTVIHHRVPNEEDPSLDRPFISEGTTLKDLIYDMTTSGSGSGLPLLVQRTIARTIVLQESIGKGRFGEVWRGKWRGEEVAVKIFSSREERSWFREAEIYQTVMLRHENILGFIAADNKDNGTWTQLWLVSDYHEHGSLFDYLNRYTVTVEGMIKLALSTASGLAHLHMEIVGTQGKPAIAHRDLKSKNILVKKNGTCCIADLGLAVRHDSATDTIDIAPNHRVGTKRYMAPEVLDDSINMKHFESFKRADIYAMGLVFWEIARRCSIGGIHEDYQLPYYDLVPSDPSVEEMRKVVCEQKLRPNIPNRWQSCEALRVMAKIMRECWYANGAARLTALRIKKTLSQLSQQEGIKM
Summary of the method: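 Compounds (10 μM to 25 pM) preincubated 60 minutes at room temperature with enzyme, then reaction run 60 minutes at 37° C with ATP added as 125 μM (5× final). Stopped with EDTA plus Eu-anti-phospho-Topoisomerase 2-alpha (Thr1342) antibody, TR-FRET read at 665 nm; pIC50 converted to pKi via Cheng-Prusoff.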

[2] = test system: TGF-β-stimulated SMAD3 phosphorylation in BEAS-2B cells; assay: Cellular ALK5 potency assay, inhibition of TGF-β stimulated pSMAD3 formation in BEAS-2B cells; format: cell-based; conditions: Homo sapiens; inhibition of TGF-β stimulated pSMAD3 formation, BEAS-2B cells; read-out: BEAS2B pIC50 (converted)
Summary of the method: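 AlphaLISA pSMAD3 read-out, beads incubated overnight. Human BEAS-2B cells: 1 h compound preincubation (37 °C, 5% CO2), then 30 min TGF-β at 10 ng/mL final, immediate lysis. Values are pIC50 relative to stimulated, compound-free baseline.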

| Structure (SMILES) | Ki [1] | IC50 [2] |
| --- | --- | --- |
| CNCCn1ccc(-c2cnc3ccc(-c4c[nH]nc4-c4cccc(C)n4)nc3c2)n1 [Compound 229, N-methyl-2-[3-[6-[3-(6-methyl-2-pyridyl)-1H-pyrazol-4-yl]-1,5-naphthyridin-3-yl]pyrazol-1-yl]ethanamine] | < 0.0316 nM | 25.1 to 158 nM |
| Cc1cccc(-c2[nH]cnc2-c2ccc3ncc(N4CCC(NCCSC5CCOC5=O)C4)cc3c2)n1 (stereo not shown) [Compound 230, 3-[2-[[1-[6-[5-(6-methyl-2-pyridyl)-1H-imidazol-4-yl]-3-quinolyl]pyrrolidin-3-yl]amino]ethylsulfanyl]tetrahydrofuran-2-one] | < 0.0316 nM | 25.1 to 158 nM |
| Cc1cccc(-c2[nH]cnc2-c2ccc3ncc(-c4cccc(C(=O)OCC5CNC5)c4)cc3c2)n1 [Compound 231, azetidin-3-ylmethyl 3-[6-[5-(6-methyl-2-pyridyl)-1H-imidazol-4-yl]-3-quinolyl]benzoate] | 0.0398 to 0.316 nM | 25.1 to 158 nM |
| Cc1cccc(-c2[nH]cnc2-c2ccc3ncc(C4=CCN(Cc5ccccc5)C4)cc3c2)n1 [Compound 232, 3-(1-benzyl-2,5-dihydropyrrol-3-yl)-6-[5-(6-methyl-2-pyridyl)-1H-imidazol-4-yl]quinoline] | < 0.0316 nM | 25.1 to 158 nM |
| Cc1cccc(-c2n[nH]cc2-c2ccc3ncc(-c4cn[nH]c4)cc3n2)n1 [Compound 233, 2-[3-(6-methyl-2-pyridyl)-1H-pyrazol-4-yl]-7-(1H-pyrazol-4-yl)-1,5-naphthyridine] | < 0.0316 nM | < 20 nM |
| CCC(=O)Nc1cnc2ccc(-c3c[nH]nc3-c3cccc(C)n3)nc2c1 [Compound 234, N-[6-[3-(6-methyl-2-pyridyl)-1H-pyrazol-4-yl]-1,5-naphthyridin-3-yl]propanamide] | < 0.0316 nM | < 20 nM |
| Cc1cccc(-c2n[nH]cc2-c2ccc3ncc(-c4cncc(N)n4)cc3n2)n1 [Compound 235, 6-[6-[3-(6-methyl-2-pyridyl)-1H-pyrazol-4-yl]-1,5-naphthyridin-3-yl]pyrazin-2-amine] | 0.0398 to 0.316 nM | 25.1 to 158 nM |
| Cc1cccc(-c2n[nH]cc2-c2ccc3ncc(C#N)cc3n2)n1 [Compound 236, 6-[3-(6-methyl-2-pyridyl)-1H-pyrazol-4-yl]-1,5-naphthyridine-3-carbonitrile] | 0.398 to 3.16 nM | 25.1 to 158 nM |
| CNCCn1cc(-c2cnc3ccc(-c4c[nH]nc4-c4cccc(C(F)(F)F)n4)nc3c2)cn1 [Compound 237, N-methyl-2-(4-(6-(3-(6-(trifluoromethyl)pyridin-2-yl)-1H-pyrazol-4-yl)-1,5-naphthyridin-3-yl)-1H-pyrazol-1-yl)ethan-1-amine] | < 0.0316 nM | 25.1 to 158 nM |
| Cc1cccc(-c2n[nH]c(N)c2-c2ccc3ncc(N4CCNCC4)cc3n2)n1 [Compound 238, 3-(6-methyl-2-pyridyl)-4-(7-piperazin-1-yl-1,5-naphthyridin-2-yl)-1H-pyrazol-5-amine] | 0.398 to 3.16 nM | 1580 to 10000 nM |
| Cc1cccc(-c2n[nH]cc2-c2ccc3ncc(NCCN4CCOCC4)cc3n2)n1 [Compound 239, 6-[3-(6-methyl-2-pyridyl)-1H-pyrazol-4-yl]-N-(2-morpholinoethyl)-1,5-naphthyridin-3-amine] | 0.0398 to 0.316 nM | 25.1 to 158 nM |
| Cc1cccc(-c2n[nH]cc2-c2ccc3ncc(-c4cnn(CC(=O)O)c4)cc3n2)n1 [Compound 240, 2-[4-[6-[3-(6-methyl-2-pyridyl)-1H-pyrazol-4-yl]-1,5-naphthyridin-3-yl]pyrazol-1-yl]acetic acid] | < 0.0316 nM | 25.1 to 158 nM |
| Cc1cccc(-c2n[nH]cc2-c2ccc3ncc(OCCN4CCN(C(C)C)CC4)cc3n2)n1 [Compound 241, 7-[2-(4-isopropylpiperazin-1-yl)ethoxy]-2-[3-(6-methyl-2-pyridyl)-1H-pyrazol-4-yl]-1,5-naphthyridine] | 0.0398 to 0.316 nM | 200 to 1260 nM |
| Cc1cccc(-c2n[nH]cc2-c2ccc3ncc(-c4c(C)noc4C)cc3n2)n1 [Compound 243, 3,5-dimethyl-4-[6-[3-(6-methyl-2-pyridyl)-1H-pyrazol-4-yl]-1,5-naphthyridin-3-yl]isoxazole] | 0.398 to 3.16 nM | 25.1 to 158 nM |
| Cc1cccc(-c2nnn(C)c2-c2ccc3ncc(NCCN4CCN(C(C)C)CC4)cc3c2)n1 [Compound 244, N-[2-(4-isopropylpiperazin-1-yl)ethyl]-6-[3-methyl-5-(6-methyl-2-pyridyl)triazol-4-yl]quinolin-3-amine] | 0.0398 to 0.316 nM | 25.1 to 158 nM |
| Cc1nc(-c2n[nH]cc2-c2ccc3ncc(-c4cnc5n4CCNC5)cc3n2)ccc1F [Compound 245, 2-[3-(5-fluoro-6-methyl-2-pyridyl)-1H-pyrazol-4-yl]-7-(5,6,7,8-tetrahydroimidazo[1,2-a]pyrazin-3-yl)-1,5-naphthyridine] | 0.0398 to 0.316 nM | 25.1 to 158 nM |
| Cc1cccc(-c2n[nH]cc2-c2ccc3ncc(-c4nc(CN5CCN(C(C)C)CC5)co4)cc3n2)n1 [Compound 246, 4-[(4-isopropylpiperazin-1-yl)methyl]-2-[6-[3-(6-methyl-2-pyridyl)-1H-pyrazol-4-yl]-1,5-naphthyridin-3-yl]oxazole] | 0.0398 to 0.316 nM | 25.1 to 158 nM |
| Cc1cccc(-c2[nH]ncc2-c2ccc3ncc(C(=O)NN)cc3n2)n1 [Compound 247, 6-[5-(6-methyl-2-pyridyl)-1H-pyrazol-4-yl]-1,5-naphthyridine-3-carbohydrazide] | 0.0398 to 0.316 nM | 25.1 to 158 nM |
| CNC1CC2CCC(C1)N2c1cnc2ccc(-c3c[nH]nc3-c3cccc(C)n3)nc2c1 (stereo not shown) [Compound 248, N-methyl-8-[6-[3-(6-methyl-2-pyridyl)-1H-pyrazol-4-yl]-1,5-naphthyridin-3-yl]-8-azabicyclo[3.2.1]octan-3-amine] | 3.98 to 31.6 nM | 200 to 1260 nM |
| Cc1cccc(-c2n[nH]cc2-c2ccc3ncc(N4CCN[C@H](C)C4)cc3n2)n1 [Compound 249, 7-[(3R)-3-methylpiperazin-1-yl]-2-[3-(6-methyl-2-pyridyl)-1H-pyrazol-4-yl]-1,5-naphthyridine] | 0.0398 to 0.316 nM | 25.1 to 158 nM |
| Cc1cccc(-c2n[nH]cc2-c2ccc3ncc(N4CCC(N5CCOCC5)CC4)cc3n2)n1 [Compound 250, 4-[1-[6-[3-(6-methyl-2-pyridyl)-1H-pyrazol-4-yl]-1,5-naphthyridin-3-yl]-4-piperidyl]morpholine] | < 0.0316 nM | 25.1 to 158 nM |
| Cc1cccc(-c2n[nH]cc2-c2ccc3ncc(-c4ccc(C5CCCN(Cc6ccccc6)C5)cc4)cc3n2)n1 (stereo not shown) [Compound 251, 7-[4-(1-benzyl-3-piperidyl)phenyl]-2-[3-(6-methyl-2-pyridyl)-1H-pyrazol-4-yl]-1,5-naphthyridine] | 0.0398 to 0.316 nM | 200 to 1260 nM |
| Cc1cccc(-c2[nH]cnc2-c2ccc3ncc(C4=CCC(NCc5ccccc5)CC4)cc3c2)n1 (stereo not shown) [Compound 252, N-benzyl-4-[6-[5-(6-methyl-2-pyridyl)-1H-imidazol-4-yl]-3-quinolyl]cyclohex-3-en-1-amine] | < 0.0316 nM | 25.1 to 158 nM |
| Cc1cccc(-c2[nH]cnc2-c2ccc3ncc(C4=CCN(C(C)C)C4)cc3n2)n1 [Compound 253, 7-(1-isopropyl-2,5-dihydropyrrol-3-yl)-2-[5-(6-methyl-2-pyridyl)-1H-imidazol-4-yl]-1,5-naphthyridine] | 0.0398 to 0.316 nM | 25.1 to 158 nM |
| Cc1cccc(-c2nnn(Cc3ccccc3)c2-c2ccc3ncc(-c4cn[nH]c4)cc3c2)n1 [Compound 254, 6-[3-benzyl-5-(6-methyl-2-pyridyl)triazol-4-yl]-3-(1H-pyrazol-4-yl)quinoline] | 0.0398 to 0.316 nM | 25.1 to 158 nM |
| Cc1cccc(-c2[nH]cnc2-c2ccc3ncc(NC(=O)CC4CNC4)cc3c2)n1 [Compound 255, 2-(azetidin-3-yl)-N-[6-[5-(6-methyl-2-pyridyl)-1H-imidazol-4-yl]-3-quinolyl]acetamide] | 0.0398 to 0.316 nM | 200 to 1260 nM |
| C=C(CN1CCNCC1)c1cnc2ccc(-c3nc[nH]c3-c3cccc(C)n3)cc2c1 [Compound 256, 6-[5-(6-methyl-2-pyridyl)-1H-imidazol-4-yl]-3-[1-(piperazin-1-ylmethyl)vinyl]quinoline] | 0.0398 to 0.316 nM | 25.1 to 158 nM |
| Cc1cccc(-c2nnn(Cc3ccccc3)c2-c2ccc3ncc(N4CCCNCC4)cc3n2)n1 [Compound 257, 2-[3-benzyl-5-(6-methyl-2-pyridyl)triazol-4-yl]-7-(1,4-diazepan-1-yl)-1,5-naphthyridine] | 0.0398 to 0.316 nM | 200 to 1260 nM |
| Cc1cccc(-c2[nH]cnc2-c2ccc3ncc(C4=CCC(NC(C)C)CC4)cc3n2)n1 (stereo not shown) [Compound 258, N-isopropyl-4-(6-(5-(6-methylpyridin-2-yl)-1H imidazol-4-yl)-1,5-naphthyridin-3-yl)cyclohex-3-en-1-amine] | < 0.0316 nM | 25.1 to 158 nM |
